Measurements reported in patent publication US20070042967A1, “Proteaseome inhibitors for the treatment of herpesviridae infected individuals” (priority 2002, published 2007).
Where a SMILES comes first, the peptide text is derived from it. The star is where a group is joined. Cbz = O=C(OCc1ccccc1)*

Assays:
RANTES = assay: Extracellular RANTES in supernatants of AD169-infected HELF (ELISA); format: cell-based, human; conditions: increasing amounts; data not shown
Experimental: (§1) Next, we wondered whether MG132 is able to reduce the immune modulatory activity of HCMV. Therefore we measured the levels of extracellular IL-6, IL-8, and RANTES in the supernatants of mock-infected and AD-169-infected HELF (m.o.i. =1) following culture in the presence or absence of increasing amounts of MG132. In parallel, surface expression of ICAM-1 (CD54) was measured by flow cytometric analysis. As expected infection of HELF with AD 169 increased secretion of IL-6, EL-8 and RANTES (data not shown) as well as surface expression of ICAM-1 over time (FIGS. 14A and B). While virus-induced secretion of IL-6, IL-8, and RANTES was not inhibited by the proteasome inhibitor, but, in some experiments even increased (data not shown), virus-induced surface expression of ICAM-1 was prevented (FIG. 14). […] For comparison, GCV had no influence on virus-induced ICAM-1 expression, but rather sustained its density on the cell surface (FIG. 14, last columns).
Cell culture fluids were tested for RANTES using the ELISA KIT from R&D System, Germany, following the manufacturers instructions. […] Surface CD54 amounts were analysed using a FACScalibur analyser and cellquest software (Becton Dickinson, Germany). Data were calculated as A mean fluorescence intensities of CD54 and isotype control antibodies (=specific mean fluorescence intensity, MFI).

HCMV AD169 = HCMV AD169 replication in human embryonal lung fibroblasts (CPE / IE staining, day 5 p.i.); format: cell-based, human cytomegalovirus
Source text: Human embryonal lung fibroblasts (HELF), one of the target cells of HCMV in vivo, are fully permissive for HCMV replication in vitro. For infection experiments the laboratory adapted strain AD169 was propagated on HELFs. Virus stocks prepared from the overlay of infected cells showing 100% cytopathic effect (CPE) by ultra centrifugation were stored in liquid N2. Confluent HELF monolayer in 50 cm^2 flasks were infected with AD169 at a multiplicity of infection (M.O.I.) of 0.01. Adsorption of the virus was allowed for 1 hour at 37° C. After that the monolayer was overlayed with MEM containing 4.5% FCS. Medium was free of or substituted with the proteasome inhibitor at the indicated concentration. Virus cultures were cultivated for 5 days without changing the medium. On day five p.i. virus replication, was quantified by the number of CPE visible in inverse light microscope. For quantification cells were stained with an HCMV-specific antibody recognising the IE proteins IE1 and IE2 (clone E13, Harlan Sera-tab, Loughborough, GB, 1:5000), goat anti-mouse HRP-conjugated IgG (1:4000; Boehringer Mannheim, Indianapolis, Ind., USA) as secondary antibody and the AEC staining kit (Sigma, Germany) which gives a reed nuclear staining of infected cells.
Granulocyte/monocyte progenitor like HL-60 cells (ACC CCL 240) were grown in RPMI 1640 medium supplemented with 10% foetal calf serum (FCS, both from Biochrom, Germany and certified to be endotoxin free). Permissive human embryonal lung fibroblasts (HELF) were grown as monolayer in Dulbecco's modified Eagle's medium (BioWhittaker Europa, Belgium) containing 2.0% FCS. Virus stocks of HCMV strain AD169. of laboratory-derived ganciclovir (GCV)-resistant viruses XbaF 4-3-1 and 1117′ 3-1-2 (both are kindly provided from K. K. Biron, Burroughs Wellcome Colo.), HSV 1, strain K, and HSV 2, strain DG (both are patients isolates from the strain collection of this institute) were prepared from the supernatant of infected cell cultures and stored in liquid nitrogen. […]

HSV1 strain K = assay: HSV1 replication in HELF (CPE count); format: cell-based, Herpes Simplex Type 1; conditions: 0.2 to 0.01 μg/ml (0.42 to 0.021 μM)
Experimental: (§2) Confluente HELF monolayers in 24 well tissue culture plates were infected with HSV1 strain K or HSV2 at a M.O.I. of 0.001. Virus adsorption was allowed for 1 h at 37° C. After removing the viral inoculate, cells were overlayed with MEM/E, 1% Methocel and incubated for two days at 37° C. in a 5% CO2 atmosphere. MG-132 at the indicated concentrations was added into the medium after adsorption. CPEs were quantified by light microscopy. MG132 had no effect on HSV1 (FIG. 6) and HSV2 (not shown) replication in HELF.

HSV2 = HSV2 replication in HELF (CPE count); format: cell-based, Herpes Simplex Type 2; conditions: not shown
Experimental: as §2

IL-6 = assay: Extracellular IL-6 in supernatants of AD169-infected HELF (ELISA); format: cell-based, human; conditions: increasing amounts; data not shown
Experimental: as §1
(§3) For measurement of IL-6 and EL-8 cell culture supernatants were collected from mock-infected and AD169-infected HELF cultivated in the presence or absence of MG132 or GCV (m.o.i.=1) immediately after adsorption of the virus (day 0) as well as at day 1, 2, 3 and 5 p.i. and tested for IL-6 and EL-8 by Immulite™ semiautomatic. ELISA analysis as described by the manufacturer (DPC Biermann, Germany).

IL-8 = assay: Extracellular IL-8 in supernatants of AD169-infected HELF (ELISA); format: cell-based, human; conditions: increasing amounts; data not shown
Experimental: as §1, §3

Q: For `CC(C)C[C@@H](C=O)NC(=O)[C@H](CC(C)C)NC(=O)[C@H](CC(C)C)NC(=O)OCc1ccccc1` [MG-132, N-carbobenzoxy-L-leucinyl-L-leucinyl-L-leucinal] (Cbz-Leu-Leu-Leu-aldehyde), which “virus-induced secretion of RANTES” value (RANTES) is on record?
A: not inhibited

Q: What about the “effect on virus replication” value (HCMV AD169; 0.01 μg/ml (0.016 μM), AD169, HELF) of the same compound?
A: no effect

Q: And the “number of IE-positive cells per foci compared with the untreated control” value (HCMV AD169; 0.1 μg/ml (0.21 μM))?
A: about 50%

Q: What about the “number of virus-infected (IE-positive) cells per focus” value (HCMV AD169; 0.2 μg/ml (0.42 μM), untreated 50) of the same compound?
A: 7 cells

Q: And the “effect on HSV1 replication in HELF” value (HSV1 strain K)?
A: no effect

Q: What about the “effect on HSV2 replication in HELF” value (HSV2) of the same compound?
A: no effect

Q: And the “virus-induced secretion of IL-6” value (IL-6)?
A: not inhibited

Q: What about the “virus-induced secretion of IL-8” value (IL-8) of the same compound?
A: not inhibited
